Columns and labels:
[1] = system: subjects with non-alcoholic fatty liver disease; details: two 150 mg capsules twice daily for three months, cited from earlier work
[2] = system: patients with NAFLD; experiment: Blood tests in 6-month study of NAFLD patients given resveratrol micronized formulation; format: in vivo, human; parameters: unit not given here
Description: In this study. 50 mg or 200 mg RSV daily were supplemented to the standard treatment of 44 patients with NAFLD for a period of 6 months and the therapeutic efficacy of RSV was investigated. All patients who participated in this process were volunteers and they have provided written consents as well filled out all the required documents. The patients were selected after they were firstly diagnosed with non-alcoholic fatty liver disease. The primary inclusion criterion was evidence of tatty liver on ultrasonography (LS), which is the most commonly, used imaging technique with remarkable sensitivity. The US findings in non-alcoholic fatty liver disease are:
Participants underwent clinical examination, electrocardiogram and abdominal ultrasound. Also, blood tests were carried out and the following parameters were measured: serum glutamic pyruvic transaminase (SGPT), serum glutamic oxaloacetic transaminase (SGOT), Alkaline phosphatase (ALP), gamma-glutamyl transpeptidase (gGT), glucose, total cholesterol levels, high-density lipoprotein (HDL), low-density lipoprotein (LDL), triglycerides (TG), insulin, insulin resistance, liver value, liver depth, kidney value, kidney depth and difference liver-kidney values.
Then, the patients were divided into two groups (randomly assigned) according to the treatment given to them. 22 patients were given treatment 50 mg RSV micronized formulation, Evelor capsules once daily, (Group A) and 22 patients were given treatment 200 mg RSV micronized formulation, Evelor capsules, once daily, (Group B). The observation period lasted for 6 months. There was a clinical examination, blood tests and an abdominal ultrasound at the beginning of the study (time 1) and in 6 months (time 2). All patients were on low fat diet and they were being followed up by nutritionist.
Two-way ANOVA with interaction (time and group) was used to test whether there are differences among dose levels, time levels and possible interaction among them. However, no significant interactions were discovered and standard two-way ANOVA was used without interactions. Moreover, an independent t-test was conducted to examine whether there were any differences between the values of physiological parameters at the beginning and the end of the study. A p-value<0.001 was considered to indicate a strongly statistically significant difference. The statistical program used was R 3.2.1.

[3] = Group A, 50 mg once daily, mean at time 1 (beginning of study)
[4] = Group A, 50 mg once daily, mean at time 2 (6 months)
[5] = Group B, 200 mg once daily, mean at time 1 (beginning of study)
[6] = Group B, 200 mg once daily, mean at time 2 (6 months)

Structure (SMILES): Oc1ccc(/C=C/c2cc(O)cc(O)c2)cc1 [Resveratrol, resveratrol]
- alanine aminotransferase ([1]; compared with placebo group): significantly decreased
- aspartate aminotransferase ([1]; compared with placebo group): significantly decreased
- glucose ([1]; compared with placebo group): significantly decreased
- homeostasis model assessment insulin resistance index ([1]; compared with placebo group): significantly decreased
- low-density lipoprotein cholesterol ([1]; compared with placebo group): significantly decreased
- total cholesterol ([1]; compared with placebo group): significantly decreased
- adiponectin level ([1]; resveratrol group): elevation
- level of TNF-α ([1]; resveratrol group): significant reductions
- level of cytokeratin 18 fragment ([1]; resveratrol group): significant reductions
- level of fibroblast growth factor ([1]; resveratrol group): significant reductions
- ALP [2, 3]: 63.63
- CH [2, 3]: 194.50
- GLU [2, 3]: 105.95
- HDL [2, 3]: 48.60
- Insulin [2, 3]: 13.58
- Insulin Resistance [2, 3]: 1405.81
- LDL [2, 3]: 119.45
- SGOT [2, 3]: 24.95
- SGPT [2, 3]: 36.09
- TG [2, 3]: 132.50
- gGT [2, 3]: 30.95
- ALP [2, 4]: 59.23
- CH [2, 4]: 185.67
- GLU [2, 4]: 96.57
- HDL [2, 4]: 47.67
- Insulin [2, 4]: 12.69
- Insulin Resistance [2, 4]: 1226.04
- LDL [2, 4]: 116.19
- SGOT [2, 4]: 26.33
- SGPT [2, 4]: 37.24
- TG [2, 4]: 109.76
- gGT [2, 4]: 27.00
- ALP [2, 5]: 74.50
- CH [2, 5]: 194.27
- GLU [2, 5]: 121.18
- HDL [2, 5]: 41.14
- Insulin [2, 5]: 12.62
- Insulin Resistance [2, 5]: 1541.04
- LDL [2, 5]: 118.75
- SGOT [2, 5]: 32.81
- SGPT [2, 5]: 47.05
- TG [2, 5]: 205.13
- gGT [2, 5]: 29.20
- ALP [2, 6]: 71.20
- CH [2, 6]: 181.15
- GLU [2, 6]: 112.50
- HDL [2, 6]: 41.70
